According to patent US20180015100A1, “COMBINATION PRODUCTS FOR THE TREATMENT OF BACTERIAL INFECTIONS AND METHODS OF PRODUCING OR DOSING OF SAME” (priority 2016, published 2018):
≈ marks a conversion by molar mass, not a printed value. Where two headings read alike, the source gives them in different places.

Assays:
[1] = test system: ESBL Klebsiella pneumoniae isolates; assay: MIC against isolates analyzed in time-kill experiments; assay type: cell-based
[2] = test system: ESBL-producing Enterobacteriaceae isolates (panel of nineteen); assay: MIC of cephalosporins alone or with clavulanate/tazobactam, whole panel; assay type: cell-based; conditions: cephalosporin alone
[3] = test system: Yersinia pestis Colorado92; assay: microbe, parasite or virus in culture; assay type: cell-based
[4] = test system: E. coli (ATCC 25922); assay: One-compartment in vitro chemostat infection model, ceftibuten alone; assay type: cell-based
Method: Becton, Dickinson and Company, Sparks, Md.) and placed in a water bath at 35° C. Magnetic stirrers were used for consistent mixing of the contents during the experiment. […] For each drug exposure/bacteria combination, the experiment was conducted over 24 hours and consisted of a drug free control and two experimental (i.e., drug containing) replicate models. Data from the two replicate models were treated as independent exposures given there is some expected variability in obtained concentrations due to small inconsistencies in volume flows between the chemostat models. A peristaltic pump (Masterflex L/S model 7524-40; Cole-Parmer, Vernon Hills, Ill.) was set to infuse CAMHB into the models at a desired elimination rate for the drug. Broth samples were collected from the model throughout the experiment to determine free drug concentrations and bacterial density. Antibiotic carryover was minimized by serial dilution of samples. Bacterial density was counted after 18-24 hours incubation at 37° C. […] Time-kill curves were constructed by plotting the log10 CFU/mL against time. […] The control models served to define 0% fT>MIC results. […] Drug concentrations were assessed at the peak and trough of each administered dose to achieve the desired exposure and at least one other midpoint concentration for each interval. […] The change in log10 CFU/ml at 24 hours was the primary endpoint for exposure response relationship. […] Mountain View, Calif.).

[5] = clinical; conditions: human, in vivo, 400 mg
Method: The twice daily divided dose of study drug was administered approximately 12 hours apart. All subjects randomized to placebo received placebo oral capsules that were identical to study drug capsules and given according to the same dosing schedule and same quantity of capsules as subjects randomized to receive ceftibuten and clavulanate concurrently. All SDs, as well as the first daily dose of the MD period on […] were given while the subject was fasted. […] In addition, blood samples for assessment of trough (pre-dose) concentrations were collected on day 7, day 8, day 9, and alternate days thereafter through study day 17. […] Peak concentration (Cmax), time at which Cmax was observed (Tmax), area under the concentration-time curve to infinity (AUCinf), percent coefficient of variation (% CV), elimination half-life (T1/2), apparent total clearance of the drug from plasma after oral administration (CL/F), and apparent volume of distribution during terminal phase after non-intravenous administration (Vz/F) were determined. […] Similar to above, six subjects were randomized to receive active drug and two were randomized to receive placebo. […] Safety, tolerability and PK were assessed as described above.

[6] = target: CTX-M-15 (Escherichia coli, UniProt Q9EXV5); assay type: biochemical
Sequence of CTX-M-15 (Q9EXV5 entry or part of it): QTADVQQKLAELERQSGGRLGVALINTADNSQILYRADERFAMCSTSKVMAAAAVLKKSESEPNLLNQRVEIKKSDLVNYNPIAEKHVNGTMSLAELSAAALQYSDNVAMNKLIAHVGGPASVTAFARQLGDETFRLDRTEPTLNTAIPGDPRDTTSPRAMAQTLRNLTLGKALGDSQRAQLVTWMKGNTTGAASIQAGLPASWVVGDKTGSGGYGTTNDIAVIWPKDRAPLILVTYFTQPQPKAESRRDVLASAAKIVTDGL

[7] = test system: Escherichia coli isolates; assay: MIC of cephalosporins alone or with clavulanate/tazobactam; assay type: cell-based; conditions: clavulanate 2:1, tazobactam 4 μg/mL
[8] = test system: E. coli clinical isolate expressing the ESBL CTX-M-15; assay type: in vivo, mouse; conditions: 0.5-4 mg/kg q4 hr s.c. for 3 days
[9] = test system: beta-lactamase producing E. coli (CTX-M-55; CTX-M-15, TEM-OSBL); assay: microbe, parasite or virus in culture; assay type: cell-based
[10] = test system: ESBL Klebsiella pneumoniae isolates; assay: Killing kinetics (time-kill); assay type: cell-based; conditions: 4X MIC of CTB+CLA
[11] = test system: ESBL Escherichia coli isolates; assay: MIC against isolates analyzed in time-kill experiments; assay type: cell-based
[12] = test system: Citrobacter freundii isolates; assay: MIC of cephalosporins alone or with clavulanate/tazobactam; assay type: cell-based; conditions: clavulanate 2:1, tazobactam 4 μg/mL
[13] = in vivo, cited from earlier work
[14] = test system: AECO001; assay: MIC of cephalosporins (Table 16); assay type: cell-based
[15] = test system: beta-lactamase producing K. pneumoniae; assay: In vitro chemostat model, clavulanate exposures with fixed ceftibuten exposure; assay type: cell-based
[16] = test system: Enterobacter aerogenes isolates; assay: MIC of cephalosporins alone or with clavulanate/tazobactam; assay type: cell-based; conditions: Klebsiella aerogenes, clavulanate 2:1, tazobactam 4 μg/mL
[17] = test system: Klebsiella oxytoca isolates; assay: as above; assay type: cell-based; conditions: clavulanate 2:1, tazobactam 4 μg/mL
[18] = sub-saturating conditions, simulated from measured kinetic constants

**Q.** Which MIC ([1]; AKP1162 (SHV-12, CTX-M-15)) does the source give for `Nc1nc(/C(=C/CC(=O)O)C(=O)N[C@@H]2C(=O)N3C(C(=O)O)=CCS[C@H]23)cs1` [Ceftibuten, ceftibuten] here?
**A.** 32 µg/mL (≈ 78 µM)

**Q.** And the MIC ([1]; AKPN1159 (SHV-12))?
**A.** 4 µg/mL (≈ 9.75 µM)

**Q.** What about the “ESBL-producing isolates with MIC<8 μg/mL” value ([2]; 19 isolates) of the same compound?
**A.** 10 of 19

**Q.** What about the “MICs relative to CLSI/EUCAST MIC breakpoints for the approved dosing regimens” value ([2]; ESBL-producing Enterobacteriaceae) of the same compound?
**A.** above the CLSI/EUCAST

**Q.** And the MIC [3]?
**A.** 0.03 µg/mL (≈ 0.0731 µM)

**Q.** What about the “fT > MIC for 1-log CPU reduction” value ([4]; 24 hours, Emax model) of the same compound?
**A.** 58.5%

**Q.** What about the “fT > MIC for 2-log CPU reduction” value ([4]; 24 hours, Emax model) of the same compound?
**A.** 66.0%

**Q.** What about the “fT > MIC for Stasis” value ([4]; 24 hours, Emax model) of the same compound?
**A.** 53.7%

**Q.** And the MIC ([4]; Escherichia coli, ATCC25922)?
**A.** 0.25 µg/mL

**Q.** What about the “geometric mean % CV of exposure (Cmax and AUCinf)” value [5] of the same compound?
**A.** 11-16%

**Q.** What about the AUC(0-inf) ([5]; po, AUCinf) of the same compound?
**A.** 93000 ng·h/mL

**Q.** What about the Cmax ([5]; po, Cmax) of the same compound?
**A.** 17900 ng/mL

**Q.** What about the half-life ([5]; po, T½) of the same compound?
**A.** 187 min

**Q.** And the Vd/F ([5]; po, Vz/F)?
**A.** 19.3 L

**Q.** And the “concentration saturating CTX-M-15 activity” value ([6]; direct-turnover assay)?
**A.** did not saturate CTX-M-15 activity

**Q.** What about the Km ([6]; read-out: KM (95% CI), CTX-M-15-mediated hydrolysis) of the same compound?
**A.** > 100 µM

**Q.** What about the “fold slower degradation by CTX-M-15 than cefixime” value [6, 18] of the same compound?
**A.** about 2.5 fold

**Q.** And the “fold slower degradation by CTX-M-15 than cefotaxime” value [6, 18]?
**A.** ~70 fold

**Q.** And the “fold slower degradation by CTX-M-15 than cefpodoxime” value [6, 18]?
**A.** ~67 fold

**Q.** And the MIC ([7]; AECO001 (no ESBL))?
**A.** 0.5 µg/mL

**Q.** What about the MIC ([7]; AECO1078 (CTX-M-15)) of the same compound?
**A.** 32 µg/mL

**Q.** And the MIC ([7]; AECO1147 (CTX-M-15))?
**A.** 4 µg/mL

**Q.** And the MIC ([7]; AECO1157 (CTX-M-15, TEM-OSBL))?
**A.** 8 µg/mL

**Q.** What about the MIC ([7]; AECO1159 (CTX-M-15)) of the same compound?
**A.** 16 µg/mL

**Q.** And the MIC ([7]; AECO1169 (CTX-M-1, TEM-OSBL))?
**A.** 1 µg/mL

**Q.** What about the MIC ([7]; AECO1172 (CTX-M-14)) of the same compound?
**A.** 2 µg/mL

**Q.** And the “bacterial titers, bladder” value [8]?
**A.** 4.06-4.58 log10 CFU

**Q.** And the “bacterial titers, kidneys” value [8]?
**A.** 4.26-5.83 log10 CFU

**Q.** And the “bacterial titers, urine” value [8]?
**A.** 3.62-4.81 log10 CFU

**Q.** And the “reduction of bacterial titers relative to untreated control, bladder” value [8]?
**A.** 2.8-3.35 log10 CFU

**Q.** What about the “reduction of bacterial titers relative to untreated control, kidneys” value [8] of the same compound?
**A.** 0.6-2.17 log10 CFU

**Q.** And the “reduction of bacterial titers relative to untreated control, urine” value [8]?
**A.** 2.46-3.65 log10 CFU

**Q.** And the MIC ([9]; E. coli CTX-M-15, TEM-OSBL)?
**A.** > 64 µg/mL

**Q.** What about the MIC ([9]; E. coli CTX-M-55, listed as CTB) of the same compound?
**A.** >64 µg/mL

**Q.** And the MIC ([9]; Escherichia coli, E. coli CTX-M-55, read-out: MIC)?
**A.** > 64 µg/mL

**Q.** What about the “Change in Log10 CFU/mL From Inoculum (0 hr)” value ([10]; AKPN1159, 2 h) of the same compound?
**A.** 0.65 Log10 CFU/mL

**Q.** What about the “Change in Log10 CFU/mL From Inoculum (0 hr)” value ([10]; AKPN1159, 4 h) of the same compound?
**A.** 2.37 Log10 CFU/mL

**Q.** And the “Change in Log10 CFU/mL From Inoculum (0 hr)” value ([10]; AKPN1159, 6 h)?
**A.** 3.01 Log10 CFU/mL

**Q.** What about the “Change in Log10 CFU/mL From Inoculum (0 hr)” value ([10]; AKPN1159, 24 h) of the same compound?
**A.** 3.71 Log10 CFU/mL

**Q.** And the “Change in Log10 CFU/mL From Inoculum (0 hr)” value ([10]; AKPN1162, 2 h)?
**A.** 1.57 Log10 CFU/mL

**Q.** And the “Change in Log10 CFU/mL From Inoculum (0 hr)” value ([10]; AKPN1162, 4 h)?
**A.** 2.76 Log10 CFU/mL

**Q.** And the “Change in Log10 CFU/mL From Inoculum (0 hr)” value ([10]; AKPN1162, 6 h)?
**A.** 2.96 Log10 CFU/mL

**Q.** And the “Change in Log10 CFU/mL From Inoculum (0 hr)” value ([10]; AKPN1162, 24 h)?
**A.** 3.55 Log10 CFU/mL

**Q.** What about the MIC ([11]; AECO1156 (CTXM-15, TEM-OSBL)) of the same compound?
**A.** 16 µg/mL (≈ 39 µM)

**Q.** What about the MIC ([11]; AECO1157 (CTXM-15, TEM-OSBL)) of the same compound?
**A.** 8 µg/mL (≈ 19.5 µM)

**Q.** And the MIC ([11]; AECO1162 (CTX-M-14))?
**A.** 8 µg/mL (≈ 19.5 µM)

**Q.** And the MIC ([11]; AECO1166 (SHV-12))?
**A.** 2 µg/mL (≈ 4.87 µM)

**Q.** And the MIC ([12]; ACFR1034 (CTX-M-15, TEM-OSBL))?
**A.** > 64 µg/mL

**Q.** And the MIC ([12]; ACFR1035 (CTX-M-3, TEM-OSBL))?
**A.** 16 µg/mL

**Q.** What about the “Mean Cmax” value ([13]; 400 mg) of the same compound?
**A.** 15 µg/mL

**Q.** What about the “Mean fCmax” value ([13]; 400 mg) of the same compound?
**A.** 5.3 µg/mL

**Q.** What about the bioavailability ([13]; po) of the same compound?
**A.** 40-90%

**Q.** What about the “time free drug concentrations >2 μg/mL following drug administration” value ([13]; po) of the same compound?
**A.** at least 6 hours

**Q.** And the Elimination half-life [13]?
**A.** ~2.4 h

**Q.** What about the “Mean unbound plasma concentration following one elimination half-life” value [13] of the same compound?
**A.** 2.6 µg/mL

**Q.** And the MIC [14]?
**A.** 0.5 µg/mL

**Q.** What about the MIC ([15]; K. pneumoniae CTX-M-14, SHV-12) of the same compound?
**A.** 16 µg/mL

**Q.** What about the MIC ([15]; K. pneumoniae CTX-M-15, SHV-12) of the same compound?
**A.** > 64 µg/mL

**Q.** And the MIC ([16]; AEAE1027 (CTX-M-14))?
**A.** 1 µg/mL

**Q.** And the MIC ([16]; AEAE1029 (CTX-M-15))?
**A.** 8 µg/mL

**Q.** What about the MIC ([17]; AKOX1005 (SHV-2, TEM-1, DHA-1)) of the same compound?
**A.** 2 µg/mL

**Q.** And the MIC ([17]; AKOX1009 (CTX-M-15))?
**A.** 4 µg/mL
